Data published in the NIST ThermoML archive (doi:10.1016/j.fluid.2012.11.009).
“And” between values parts separate entries of the source, which are not always exact repeats. Equal values may be shown once. Numbers after ± are expanded uncertainties.

Settings: Liquid, Distillation

CC(O)CNCC(C)O (centres undefined) [N-(2-hydroxypropyl)-2-hydroxy-1-propanamine]
Settings | vapor or sublimation pressure
420 K | 2.8 ± 2.4 kPa
422 K | 3 ± 2.4 kPa and 3.1 ± 2.4 kPa
428 K | 4 ± 2.4 kPa and 4.4 ± 2.4 kPa
429 K | 4.1 ± 2.4 kPa
433 K | 4.9 ± 2.4 kPa and 5.1 ± 2.4 kPa
437 K | 5.9 ± 2.5 kPa
440 K | 6.8 ± 2.5 kPa
441 K | 7 ± 2.5 kPa
444 K | 7.8 ± 2.5 kPa and 7.9 ± 2.5 kPa
447 K | 8.9 ± 2.5 kPa
448 K | 9.9 ± 2.5 kPa
449 K | 9.9 ± 2.5 kPa
450 K | 10.1 ± 2.6 kPa
451 K | 10.6 ± 2.5 kPa and 10.8 ± 2.5 kPa
452 K | 10.9 ± 2.6 kPa
453 K | 11.9 ± 2.6 kPa
454 K | 11.8 ± 2.5 kPa and 11.9 ± 2.5 kPa
456 K | 12.9 ± 2.6 kPa
457 K | 13.1 ± 2.6 kPa and 13.9 ± 2.6 kPa
458 K | 13.9 ± 2.7 kPa and 14 ± 2.7 kPa
460 K | 14.9 ± 2.7 kPa
461 K | 15.8 ± 2.6 kPa
464 K | 17.2 ± 2.6 kPa
465 K | 17.9 ± 2.6 kPa
